Laboratory results taken from PMC10818380, “Triphenylphosphonium Analogs of Short Peptide Related to Bactenecin 7 and Oncocin 112 as Antimicrobial Agents” (Pharmaceutics, 2024).
Values after ≈ are worked out from the molar mass of the structure shown. Like-named read-outs stand apart in the source and are kept apart here. Peptide text beside a SMILES is read from it. * marks the point of attachment. X3 = O=C(CCCCCCCCCC[P+](c1ccccc1)(c1ccccc1)c1ccccc1)*

Assays:
E. coli JW0368 ΔsbmA = test: microbe, parasite or virus in culture; assay type: cell-based; details: for MIC: 18 h; for comparison of MIC values, E. coli ΔsbmA versus wild type: MIC values of Table 1
Experimental: (§1) The MIC values for Bac(1–10), Bac(1–10, R/Y), Bac(1–10, R/Y)-Cn-TPP, TPP-C10-Bac(1–10, R/Y), and Onc112 were determined via LB broth microdilution, as recommended by CLSI in the Methods for Dilution Antimicrobial Susceptibility Tests for Bacteria that Grow Aerobically, Approved Standard, 9th ed., CLSI document M07-A9, using in-house-prepared panels. The compounds were diluted in a 96-well microtiter plate to final concentrations ranging from 0.1 to 100 µM in a 200 µL aliquot of the bacterial suspension, followed by incubation at 37 °C for 18 h. The cell concentration was estimated according to the absorbance (A600). The measurements were performed with a VICTOR X5 Multilabel Plate Reader (PerkinElmer, Waltham, MA, USA). The following bacterial strains were used: E. coli BW25113, E. coli JW0368 ΔsbmA, B. subtilis 168, and B. subtilis CFR [39].

B. subtilis CFR = test: microbe, parasite or virus in culture; assay type: cell-based; details: 18 h
Experimental: as §1

E. coli BW25113 = test: microbe, parasite or virus in culture; assay type: cell-based; details: E. coli BW25113, 37 °C, 18 h
Experimental: as §1

B. subtilis 168 = test: microbe, parasite or virus in culture; assay type: cell-based
Experimental: as §1

[1] = system: E. coli JW5503 (∆tolC) (KanS) pDualrep2; test: pDualrep2 double-reporter agar plate test; assay type: cell-based; details: 1 µL of 10 mM solution on agar plate
Experimental: The “pDualrep2” system was used to evaluate the mechanism of the antimicrobial action of the synthesized compounds. This system is based on the hypersensitive strain E. coli JW5503 (∆tolC) (KanS) transformed with the “pDualrep2” plasmid, which allows one to sort out suppressors of protein synthesis or SOS response inducers. Briefly, 1 µL of 10 mM water solutions of Bac(1–10), Bac(1–10, R/Y), Bac(1–10, R/Y)-Cn-TPP, TPP-C10-Bac(1–10, R/Y), and Onc112 were applied onto the agar plate that already contained a layer of the reporter strain E. coli JW5503 (∆tolC) (KanS) pDualrep2, and then the plate was incubated overnight at 37 °C. The agar plate was scanned using the ChemiDoc^TM Imaging System (Bio-Rad Laboratories, Hercules, CA, USA), containing two channels, “Cy3-blot” (553/574 nm; green pseudocolor) for Turbo Red Fluorescent Protein (TurboRFP) detection and “Cy5-blot” (588/633 nm; red pseudocolor) for Katushka2S fluorescence. […] Levofloxacin (LEV; 50 μg/mL, 1 μL) and erythromycin (ERY; 5 mg/mL, 1 μL) were utilized as positive controls for DNA and protein synthesis inhibitors, respectively.

70S E. coli ribosome = test: Competition-binding assay, displacement of BODIPY-Bac(1–10), fluorescence anisotropy; details: CI (α = 0.05), read-out: apparent dissociation constant (KD)
Experimental: 70S ribosomes were isolated from E. coli MRE600 cells according to a published procedure. The binding of BODIPY-Bac(1–10) to 70S E. coli ribosomes was performed according to the following procedure. BODIPY-Bac(1–10) (16 nM) was incubated with ribosomes (from 0.5 nM to 2000 nM) for 2 h at 26 °C in a buffer containing 20 mM of HEPES-KOH (pH 7.5), 50 mM of NH4Cl, 10 mM of Mg(CH3COO)2, 4 mM of β-mercaptoethanol, and 0.05% Tween-20. The binding affinities of peptides 1 and 2, their TPP analogs 3–5, as well as the control compounds for the E. coli ribosome were analyzed via a competition-binding assay using fluorescently labeled BODIPY-Bac(1–10) or BODIPY-ERY, as described before in [38, 54]. The fluorescent compound (16 nM) was mixed with ribosomes (84 nM for BODIPY-Bac(1–10) and 46 nM for BODIPY-ERY) in the buffer. Solutions of the tested compounds were added to the obtained complexes to final concentrations ranging from 0.01 to 100 µM. The mixtures were incubated for 2 h at 26 °C, and then the values of fluorescence anisotropy were measured with a VICTOR X5 Multilabel Plate Reader (PerkinElmer, Waltham, MA, USA) using a 384-well plate. The excitation wavelength was 485 nm, and the emission wavelength was 535 nm. From the data obtained, apparent dissociation constants were calculated.

B. subtilis = test: Membrane potential with fluorescent probe diS-C3-(5); assay type: cell-based; details: diS-C3-(5) fluorescence
Experimental: The membrane potential of B. subtilis was assessed by measuring the fluorescence emitted by the potential-dependent probe, diS-C3-(5). Bacterial cells derived from the overnight culture of B. subtilis were inoculated into a fresh LB medium and allowed to grow for 24 h until reaching an optical density of 0.8 at 600 nm. Subsequently, the bacteria were subjected to a 20-fold dilution in a buffer comprising 100 mM of KCl and 10 mM of Tris, adjusted to a pH of 7.4. Fluorescence measurements were conducted at 670 nm (with excitation at 630 nm) using a Fluorat-02-Panorama fluorimeter manufactured by Lumex Instruments in St. Petersburg, Russia.

[2] = system: bacterial translation (E. coli S30 extract); test: In vitro translation inhibition of firefly luciferase mRNA, E. coli S30 extract; assay type: biochemical; details: 30 µM
Experimental: Briefly, in vitro-transcribed firefly luciferase mRNA (fluc) was translated using the E. coli S30 Extract System for Linear Templates (Promega, Madison, WI, USA). Reaction mixtures (with a 5 μL total volume) supplemented with 0.1 mM of a mixture of all canonical amino acids, 4 U of RiboLock RNase Inhibitor (Thermo Fisher Scientific, Waltham, MA, USA), and 0.1 mM of D-luciferin (Sigma-Aldrich, Burlington, MA, USA) were pre-incubated at RT for 5 min after the addition of the tested compounds at a final concentration of 30 µM. Then, 50 ng of the mRNA was added to each reaction tube, and the mixtures were immediately subjected to continuous chemiluminescence measurements using the VICTOR X5 Multilabel Plate Reader (PerkinElmer, Waltham, MA, USA) at 37 °C for 30 min. The maximal rates of the firefly luciferase (Fluc) accumulation were calculated using the OriginPro 7.5 software. The values were normalized to a positive control (0.3% DMSO, assigned a value of 100%).

A549 = test: cells
Experimental: (§2) The cytotoxicity of the substances under study was tested using the MTT (3-(4,5-dimethylthiazol-2-yl)-2,5-diphenyltetrazolium bromide) assay with some modifications. The detailed procedure for the MTT assay is given in the Supplementary Materials (Section S5).
(§3) Two thousand five hundred cells per well for the MCF7, HEK293T, and A549 cell lines or 4000 cells per well for the VA13 cell line were plated in 135 µL of DMEM-F12 media with 10% FBS (both Gibco, Waltham, MA, USA) in a 96-well plate and were incubated in a 5% CO2 incubator for the first 16 h, without treatment. Then 15 µL of media-DMSO solutions of the tested substances were added to the cells (the final DMSO concentrations in the media were 1% or less), and the cells were treated for 72 h with 25 nM–50 µM (eight dilutions) of the tested substances (triplicate each). Serial dilutions of DMSO and doxorubicin were used as controls. The MTT reagent (Paneco LLC, Moscow, Russia) was then added to the cells at a final concentration of 0.5 g/L (10× stock solution in PBS was used) and incubated for 2.5 h at 37 °C in the incubator under an atmosphere of 5%
(§4) CO2. The MTT solution was then discarded, and 140 µL of DMSO (PharmaMed LLC, Krasnodar, Russia) was added. The plates were swayed on a shaker (60 rpm) to dissolve the formazan. The absorbance was measured using the VICTOR X5 Multilabel Plate Reader (PerkinElmer, Wa l th a m, MA, USA) at a wavelength of 565 nm (in order to measure formazan concentration). The resu l ts were used to construct a dose-response graph and to estimate IC50 values.
(§5) Figure S11.The dependencies of viability of cells after treatment by tested compounds.
(§6) (1 picture or pasted object on this page, not shown here)

MCF7 = test: cells; assay type: cell-based, human
Experimental: as §2, §3, §4, §5, §6

VA13 = test: cells; assay type: cell-based, human
Experimental: as §2, §3, §4, §5, §6

HEK293T = test: cells; assay type: cell-based, human; details: 72 h
Experimental: as §2, §3, §4, §5, §6

Row | Compound | reporter induction (Katushka2S red pseudocolor = protein synthesis inhibition) [1] | Kd (70S E. coli ribosome) [nM] | MIC (B. subtilis CFR; CFR) [µM] | inhibitory effect on growth of bacterial cells [1] | inhibition of bacterial translation of firefly luciferase (Fluc) mRNA [2] | MIC (E. coli JW0368 ΔsbmA; E. coli ∆sbmA, 37 °C) [µM] | comparison of MIC values, E. coli ΔsbmA versus wild type (E. coli JW0368 ΔsbmA) | MIC (E. coli BW25113) [µM] | MIC (B. subtilis 168; B. subtilis 168, 37 °C, 18 h) [µM] | also measured
1 | CC[C@H]1OC(=O)[C@H](C)[C@@H](O[C@H]2C[C@@](C)(OC)[C@@H](O)[C@H](C)O2)[C@H](C)[C@@H](O[C@@H]2O[C@H](C)C[C@H](N(C)C)[C@H]2O)[C@](C)(O)C[C@@H](C)C(=O)[C@H](C)[C@@H](O)[C@]1(C)O [ERY, erythromycin, reference compound] | red pseudocolor reporter induction was observed | – | – | – | – | – | – | – | – | MIC (E. coli JW0368 ΔsbmA; Escherichia coli): 170 µM (≈ 125 µg/mL); MIC (B. subtilis CFR; Bacillus subtilis, B. subtilis-CFR (chloramphenicol-resistant), 37 °C): < 0.1 µM; MIC (E. coli BW25113; Escherichia coli): 170 µM (≈ 125 µg/mL); MIC (B. subtilis 168; Bacillus subtilis, B. subtilis 168, 37 °C, 18 h): < 0.1 µM
2 | H-RRIRPRPPRL-OH [Compound 1, Bac(1–10)] | – | 1400 ± 100 | >50 | did not exhibit any antibacterial activity | practically did not inhibit | – | – | – | – | MIC (B. subtilis 168; 168, 18 h): >50 µM; effect on membrane potential of B. subtilis (B. subtilis; 50 µM): did not affect the membrane potential
3 | CC[C@H](C)[C@H](NC(=O)[C@H](CCCNC(=N)N)NC(=O)[C@H](CCCNC(=N)N)NC(=O)CCCCCCCCCC[P+](c1ccccc1)(c1ccccc1)c1ccccc1)C(=O)N[C@@H](CCCNC(=N)N)C(=O)N1CCC[C@H]1C(=O)N[C@@H](CCCNC(=N)N)C(=O)N1CCC[C@H]1C(=O)N1CCC[C@H]1C(=O)N[C@@H](Cc1ccc(O)cc1)C(=O)N[C@@H](CC(C)C)C(=O)O [Compound 5, TPP-C10-Bac(1–10, R/Y)] (X3-RRIRPRPPYL-OH) | – | 160 ± 20 | 12.5 | demonstrated an inhibitory effect on the growth of bacterial cells | weakly inhibited | 5.3 | the same | 5.3 | 12.5 | IC50 (A549; 72 h): > 50000 nM; IC50 (MCF7; 72 h): > 20000 nM; IC50 (VA13; 72 h): > 50000 nM; IC50 (HEK293T): 36000 ± 4000 nM; effect on membrane potential of B. subtilis (B. subtilis; 2.5 µM): decrease in the membrane potential, to a somewhat lesser extent
4 | CCCCCCCCCC[P+](c1ccccc1)(c1ccccc1)c1ccccc1 [C10-TPP, reference compound] | did not induce the reporters | – | – | caused a large growth inhibition zone | – | 50 | the same | 50 | 1.6 | IC50 (A549; read-out: IC50 (50% inhibition of viability of cells), A549, 72 h, MTT): < 160 nM; MIC (B. subtilis CFR; B. subtilis-CFR (chloramphenicol-resistant), 37 °C): 0.8 µM; IC50 (MCF7; MCF7, 72 h, MTT, read-out: IC50 (50% inhibition of viability of cells)): 250 ± 70 nM; IC50 (VA13; VA13, 72 h, MTT, read-out: IC50 (50% inhibition of viability of cells)): < 160 nM; IC50 (HEK293T; HEK293T, MTT, read-out: IC50 (50% inhibition of viability of cells)): < 160 nM
